In publication PMC10722513:

Experiment: Au(I)-catalysed intramolecular Trp C2-H alkynylation: peptide-EBX (4-ethynylbenzoyl bis-CF3-benziodoxole on Lys side chain or N-terminus) + AuCl·Me2S, open flask
Conditions: HFIP, 5.0 mM, 25.0 °C, 0.17 h

## CC(=O)N[C@H]1CCCCNC(=O)c2ccc(cc2)C#Cc2[nH]c3ccccc3c2C[C@@H](C(=O)O)NC(=O)[C@H](Cc2ccccc2)NC(=O)[C@H](C)NC(=O)[C@H](CCC(N)=O)NC1=O [Ac-K(EBX)-Q-A-F-W-OH]
From CC(=O)N[C@@H](CCCCNC(=O)c1ccc(C#CI2OC(C(F)(F)F)(C(F)(F)F)c3ccccc32)cc1)C(=O)N[C@@H](CCC(N)=O)C(=O)N[C@@H](C)C(=O)N[C@@H](Cc1ccccc1)C(=O)N[C@@H](Cc1c[nH]c2ccccc12)C(=O)O, 28-membered ring
  ring closure, isolated yield: 56%

## CC(=O)N[C@H]1CCCCNC(=O)c2ccc(cc2)C#Cc2c(c3ccccc3n2C)C[C@@H](C(=O)O)NC(=O)[C@H](Cc2ccccc2)NC(=O)[C@H](C)NC(=O)[C@H](CC(C)C)NC1=O [Ac-K(EBX)-L-A-F-W(1-Me)-OH]
From CC(=O)N[C@@H](CCCCNC(=O)c1ccc(C#CI2OC(C(F)(F)F)(C(F)(F)F)c3ccccc32)cc1)C(=O)N[C@@H](CC(C)C)C(=O)N[C@@H](C)C(=O)N[C@@H](Cc1ccccc1)C(=O)N[C@@H](Cc1cn(C)c2ccccc12)C(=O)O, 28-membered ring
  ring closure, isolated yield: 63%

## CC[C@H](C)[C@@H]1NC(=O)[C@@H]2CCCN2C(=O)[C@H]([C@@H](C)CC)NC(=O)[C@@H]2CCCN2C(=O)[C@H](Cc2ccccc2)NC(=O)[C@H](C)NC(=O)c2ccc(cc2)C#Cc2[nH]c3ccccc3c2C[C@@H](C(N)=O)NC1=O [EBX-A-F-P-I-P-I-W-NH2]
From CC[C@H](C)[C@H](NC(=O)[C@@H]1CCCN1C(=O)[C@@H](NC(=O)[C@@H]1CCCN1C(=O)[C@H](Cc1ccccc1)NC(=O)[C@H](C)NC(=O)c1ccc(C#CI2OC(C(F)(F)F)(C(F)(F)F)c3ccccc32)cc1)[C@@H](C)CC)C(=O)N[C@@H](Cc1c[nH]c2ccccc12)C(N)=O, 30-membered ring
  ring closure, isolated yield: 53%

## CC(=O)N[C@H]1CCCCNC(=O)c2ccc(cc2)C#Cc2[nH]c3ccccc3c2C[C@@H](C(=O)O)NC(=O)[C@H](Cc2ccccc2)NC(=O)[C@H](C)NC(=O)[C@H](CCCNC(=N)N)NC1=O [Ac-K(EBX)-R-A-F-W-OH]
From CC(=O)N[C@@H](CCCCNC(=O)c1ccc(C#CI2OC(C(F)(F)F)(C(F)(F)F)c3ccccc32)cc1)C(=O)N[C@@H](CCCNC(=N)N)C(=O)N[C@@H](C)C(=O)N[C@@H](Cc1ccccc1)C(=O)N[C@@H](Cc1c[nH]c2ccccc12)C(=O)O, 28-membered ring
  ring closure, isolated yield: 42%

## N=C(N)NCCC[C@@H]1NC(=O)[C@H](CCCNC(=N)N)NC(=O)[C@H](CCCNC(=N)N)NC(=O)[C@H](CCCNC(=N)N)NC(=O)[C@H](Cc2ccc3ccccc3c2)NC(=O)c2ccc(cc2)C#Cc2[nH]c3ccccc3c2C[C@@H](C(N)=O)NC1=O [EBX-Nal(2)-R-R-R-R-W-NH2]
From N=C(N)NCCC[C@H](NC(=O)[C@H](CCCNC(=N)N)NC(=O)[C@H](CCCNC(=N)N)NC(=O)[C@H](CCCNC(=N)N)NC(=O)[C@H](Cc1ccc2ccccc2c1)NC(=O)c1ccc(C#CI2OC(C(F)(F)F)(C(F)(F)F)c3ccccc32)cc1)C(=O)N[C@@H](Cc1c[nH]c2ccccc12)C(N)=O, 27-membered ring
  ring closure, isolated yield: 53%

## C[C@@H]1NC(=O)[C@H](CC(=O)O)NC(=O)CNC(=O)c2ccc(cc2)C#Cc2[nH]c3ccccc3c2C[C@@H](C(N)=O)NC(=O)[C@H](CCC(=O)O)NC(=O)CNC(=O)[C@H]([C@@H](C)O)NC(=O)[C@H](CCC(=O)O)NC1=O [EBX-G-D-A-E-T-G-E-W-NH2]
From C[C@H](NC(=O)[C@H](CC(=O)O)NC(=O)CNC(=O)c1ccc(C#CI2OC(C(F)(F)F)(C(F)(F)F)c3ccccc32)cc1)C(=O)N[C@@H](CCC(=O)O)C(=O)N[C@H](C(=O)NCC(=O)N[C@@H](CCC(=O)O)C(=O)N[C@@H](Cc1c[nH]c2ccccc12)C(N)=O)[C@@H](C)O, 33-membered ring
  ring closure, isolated yield: 47%

## CSCC[C@@H]1NC(=O)[C@@H](NC(C)=O)CCCCNC(=O)c2ccc(cc2)C#Cc2[nH]c3ccccc3c2C[C@@H](C(=O)O)NC(=O)[C@H](Cc2ccccc2)NC(=O)[C@H](C)NC1=O [Ac-K(EBX)-M-A-F-W-OH]
From CSCC[C@H](NC(=O)[C@H](CCCCNC(=O)c1ccc(C#CI2OC(C(F)(F)F)(C(F)(F)F)c3ccccc32)cc1)NC(C)=O)C(=O)N[C@@H](C)C(=O)N[C@@H](Cc1ccccc1)C(=O)N[C@@H](Cc1c[nH]c2ccccc12)C(=O)O, 28-membered ring
  ring closure, isolated yield: 0%

## CC(=O)N[C@H]1CCCCNC(=O)c2ccc(cc2)C#Cc2[nH]c3ccccc3c2C[C@@H](C(=O)O)NC(=O)[C@H](Cc2ccccc2)NC(=O)[C@H](C)NC(=O)[C@H](Cc2c[nH]cn2)NC1=O [Ac-K(EBX)-H-A-F-W-OH]
From CC(=O)N[C@@H](CCCCNC(=O)c1ccc(C#CI2OC(C(F)(F)F)(C(F)(F)F)c3ccccc32)cc1)C(=O)N[C@@H](Cc1c[nH]cn1)C(=O)N[C@@H](C)C(=O)N[C@@H](Cc1ccccc1)C(=O)N[C@@H](Cc1c[nH]c2ccccc12)C(=O)O, 28-membered ring
  ring closure, isolated yield: 30%

## C[C@@H]1NC(=O)[C@H](CC(=O)O)NC(=O)c2ccc(cc2)C#Cc2[nH]c3ccccc3c2C[C@@H](C(N)=O)NC(=O)[C@H](CCC(=O)O)NC(=O)CNC(=O)[C@H]([C@@H](C)O)NC(=O)[C@H](CCC(=O)O)NC1=O [EBX-D-A-E-T-G-E-W-NH2]
From C[C@H](NC(=O)[C@H](CC(=O)O)NC(=O)c1ccc(C#CI2OC(C(F)(F)F)(C(F)(F)F)c3ccccc32)cc1)C(=O)N[C@@H](CCC(=O)O)C(=O)N[C@H](C(=O)NCC(=O)N[C@@H](CCC(=O)O)C(=O)N[C@@H](Cc1c[nH]c2ccccc12)C(N)=O)[C@@H](C)O, 30-membered ring
  ring closure, isolated yield: 49%

## C#CC[C@@H]1NC(=O)[C@@H](NC(C)=O)CCCCNC(=O)c2ccc(cc2)C#Cc2[nH]c3ccccc3c2C[C@@H](C(=O)O)NC(=O)[C@H](Cc2ccccc2)NC(=O)[C@H](C)NC1=O [Ac-K(EBX)-Pra-A-F-W-OH]
From C#CC[C@H](NC(=O)[C@H](CCCCNC(=O)c1ccc(C#CI2OC(C(F)(F)F)(C(F)(F)F)c3ccccc32)cc1)NC(C)=O)C(=O)N[C@@H](C)C(=O)N[C@@H](Cc1ccccc1)C(=O)N[C@@H](Cc1c[nH]c2ccccc12)C(=O)O, 28-membered ring
  ring closure, isolated yield: 57%

## CC(=O)N[C@H]1CCCCNC(=O)c2ccc(cc2)C#Cc2[nH]c3ccccc3c2C[C@@H](C(=O)O)NC(=O)[C@H](Cc2ccccc2)NC(=O)[C@H](C)NC(=O)[C@H](Cc2ccc(O)cc2)NC1=O [Ac-K(EBX)-Y-A-F-W-OH]
From CC(=O)N[C@@H](CCCCNC(=O)c1ccc(C#CI2OC(C(F)(F)F)(C(F)(F)F)c3ccccc32)cc1)C(=O)N[C@@H](Cc1ccc(O)cc1)C(=O)N[C@@H](C)C(=O)N[C@@H](Cc1ccccc1)C(=O)N[C@@H](Cc1c[nH]c2ccccc12)C(=O)O, 28-membered ring
  ring closure, isolated yield: 53%

## CC(=O)N[C@H]1CCCCNC(=O)c2ccc(cc2)C#Cc2[nH]c3ccccc3c2C[C@@H](C(=O)O)NC(=O)[C@H](Cc2ccccc2)NC(=O)[C@H](C)NC(=O)[C@H](CC(C)C)NC1=O [Ac-K(EBX)-L-A-F-W-OH]
From CC(=O)N[C@@H](CCCCNC(=O)c1ccc(C#CI2OC(C(F)(F)F)(C(F)(F)F)c3ccccc32)cc1)C(=O)N[C@@H](CC(C)C)C(=O)N[C@@H](C)C(=O)N[C@@H](Cc1ccccc1)C(=O)N[C@@H](Cc1c[nH]c2ccccc12)C(=O)O, 28-membered ring
  ring closure, isolated yield: 56%

## CC(=O)N[C@@H](CCC(=O)O)C(=O)N[C@H](C(=O)N[C@@H](Cc1ccccc1)C(=O)N[C@H]1CCCCNC(=O)c2ccc(cc2)C#Cc2[nH]c3ccccc3c2C[C@@H](C(=O)N[C@@H](C)C(=O)N[C@@H](CC(C)C)C(=O)N[C@@H](CC(C)C)C(=O)N[C@@H](Cc2c[nH]c3ccccc23)C(N)=O)NC(=O)[C@H](CC(C)C)NC(=O)[C@H](CC(=O)O)NC1=O)[C@@H](C)O [Ac-E-T-F-K(EBX)-D-L-W-A-L-L-W-NH2]
From CC(=O)N[C@@H](CCC(=O)O)C(=O)N[C@H](C(=O)N[C@@H](Cc1ccccc1)C(=O)N[C@@H](CCCCNC(=O)c1ccc(C#CI2OC(C(F)(F)F)(C(F)(F)F)c3ccccc32)cc1)C(=O)N[C@@H](CC(=O)O)C(=O)N[C@@H](CC(C)C)C(=O)N[C@@H](Cc1c[nH]c2ccccc12)C(=O)N[C@@H](C)C(=O)N[C@@H](CC(C)C)C(=O)N[C@@H](CC(C)C)C(=O)N[C@@H](Cc1c[nH]c2ccccc12)C(N)=O)[C@@H](C)O, 25-membered ring
  ring closure, isolated yield: 37%

## N=C(N)NCCC[C@@H]1NC(=O)CNC(=O)c2ccc(cc2)C#Cc2[nH]c3ccccc3c2C[C@@H](C(N)=O)NC(=O)[C@H](Cc2ccccc2)NC(=O)[C@H](CC(=O)O)NC(=O)CNC1=O [EBX-G-R-G-D-F-W-NH2]
From N=C(N)NCCC[C@H](NC(=O)CNC(=O)c1ccc(C#CI2OC(C(F)(F)F)(C(F)(F)F)c3ccccc32)cc1)C(=O)NCC(=O)N[C@@H](CC(=O)O)C(=O)N[C@@H](Cc1ccccc1)C(=O)N[C@@H](Cc1c[nH]c2ccccc12)C(N)=O, 27-membered ring
  ring closure, isolated yield: 63%

## CC(C)C[C@@H]1NC(=O)[C@H](CC(=O)O)NC(=O)[C@H](CC(=O)O)NC(=O)[C@H](Cc2ccccc2)NC(=O)[C@H](Cc2ccccc2)NC(=O)CNC(=O)c2ccc(cc2)C#Cc2[nH]c3ccccc3c2C[C@@H](C(=O)N[C@@H](Cc2ccccc2)C(=O)N[C@H](C(=O)N[C@@H](C)C(N)=O)C(C)C)NC(=O)[C@H](Cc2ccc(O)cc2)NC1=O [EBX-G-F-F-D-D-L-Y-W-F-V-A-NH2]
From CC(C)C[C@H](NC(=O)[C@H](CC(=O)O)NC(=O)[C@H](CC(=O)O)NC(=O)[C@H](Cc1ccccc1)NC(=O)[C@H](Cc1ccccc1)NC(=O)CNC(=O)c1ccc(C#CI2OC(C(F)(F)F)(C(F)(F)F)c3ccccc32)cc1)C(=O)N[C@@H](Cc1ccc(O)cc1)C(=O)N[C@@H](Cc1c[nH]c2ccccc12)C(=O)N[C@@H](Cc1ccccc1)C(=O)N[C@H](C(=O)N[C@@H](C)C(N)=O)C(C)C, 33-membered ring
  ring closure, isolated yield: 56%

## CC(=O)N[C@H]1CCCCNC(=O)c2ccc(cc2)C#Cc2[nH]c3ccccc3c2C[C@@H](C(=O)O)NC(=O)[C@H](CC(C)C)NC1=O [Ac-K(EBX)-L-W-OH]
From CC(=O)N[C@@H](CCCCNC(=O)c1ccc(C#CI2OC(C(F)(F)F)(C(F)(F)F)c3ccccc32)cc1)C(=O)N[C@@H](CC(C)C)C(=O)N[C@@H](Cc1c[nH]c2ccccc12)C(=O)O, 22-membered ring
  ring closure, isolated yield: 40%
